Source: US11840523B2, “IRE1α inhibitors and uses thereof” (The Regents of the University of California, priority 2020, dated 2023)
Values belong to the compound of their own block, whether it stands above or below them.

Legend:
dpIRE1α* = dpIRE1α* (Homo sapiens (Human), UniProt O75460); assay: In vitro Kdimer assay (XBP1-mini substrate cleavage) with dpIRE1α*; type: biochemical; details: FIG. 4; for fold lowering of Kdimer of dpIRE1α* when kinase domain complexed to ligand: versus apo dpIRE1α*, FIG. 1D
Chain of dpIRE1α* (O75460 547-977): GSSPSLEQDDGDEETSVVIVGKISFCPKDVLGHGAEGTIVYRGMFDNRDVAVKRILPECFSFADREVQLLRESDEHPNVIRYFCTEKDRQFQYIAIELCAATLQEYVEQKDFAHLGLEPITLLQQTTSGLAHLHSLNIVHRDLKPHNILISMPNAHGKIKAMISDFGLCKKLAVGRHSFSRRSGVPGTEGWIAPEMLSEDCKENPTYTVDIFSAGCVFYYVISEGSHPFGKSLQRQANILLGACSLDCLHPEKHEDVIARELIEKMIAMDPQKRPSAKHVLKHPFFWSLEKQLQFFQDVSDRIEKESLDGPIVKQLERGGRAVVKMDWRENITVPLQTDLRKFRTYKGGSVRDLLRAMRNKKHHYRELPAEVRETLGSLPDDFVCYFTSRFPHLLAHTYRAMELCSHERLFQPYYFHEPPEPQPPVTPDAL
Text: (§1) In order to better understand how to achieve an optimal intermediate RNase activation state through engagement of IRE1α's kinase domain, we first established a quantitative in vitro framework for characterizing how ATP-binding site occupancy influences RNase activity. […] This dimeric state-commonly referred to as the “back-to-back” dimer—is characterized by an extensive interface between the kinase and RNase domains of each IRE1α protomer; this dimeric state can be promoted through mass action as IRE1α concentration is raised. […] Furthermore, ligands that occupy the ATP-binding site of the kinase domain can also stimulate IRE1α's RNase activity by promoting dimer formation. We measured the ability of a purified, recombinant kinase/RNase domain construct of IRE1α-called IRE1α* to cleave a FRET-quenched XBP1 RNA mini-substrate as a function of IRE1α* concentration, in order to provide a quantitative metric of IRE1α's dimer affinity (Kdimer) (FIG. 1). […]
IRE1α* or dPIRE1α* was titrated from either 2 μM or 4 μM in two-fold serial dilutions in assay buffer (20 mM Tris, 50 mM sodium chloride, 1 mM MgCl2, 2 mM DTT, 0.05% Triton X-100 (v/v), pH 7.5) and incubated with 50 μM inhibitor for 30 minutes at room temperature. […] Fluorescence was detected on a Perkin Elmer Envision Microplate Reader at excitation and emission wavelengths of 650 nm and 665 nm. Reaction process was monitored real time in 10-second intervals for at least 30 minutes. Initial rates of XBP1-cleavage were determined for each respective IRE1α* of dpIRE1α* concentration. Specific activity was then determined by dividing rate (RFU/s) by the respective IRE1α* of dpIRE1α* used (RFU/s*[IRE1α]). Kdimer values were determined by fitting these values using the non-linear regression ‘one-site total’ binding parameter in GraphPad Prism analysis software.

IRE1α [1] = target: T1, IRE1α (Homo sapiens (Human), UniProt O75460); assay: In vitro Kdimer assay (XBP1-mini substrate cleavage) with IRE1α*; type: biochemical; details: ligand-bound IRE1α*; FIG. 1E, FIG. 5
T1 sequence (O75460 547-977): as above
Text: as §1
IRE1α* or dPIRE1α* was titrated from either 2 μM or 4 μM in two-fold serial dilutions in assay buffer (20 mM Tris, 50 mM sodium chloride, 1 mM MgCl2, 2 mM DTT, 0.05% Triton X-100 (v/v), pH 7.5) and incubated with 50 μM inhibitor for 30 minutes at room temperature. […] Fluorescence was detected on a Perkin Elmer Envision Microplate Reader at excitation and emission wavelengths of 650 nm and 665 nm. […]

[2] = system: XBP1 splicing in INS-1 cells; assay: XBP1 splicing in ER-stressed INS-1 cells; type: cell-based, rat; details: INS-1 cells treated with brefeldin A or thapsigargin; FIG. 6
Description: INS-1s (rat insulinoma beta cells) were grown in RPMI, 10% FBS buffer (v/v), 1 mM sodium pyruvate, 10 mM HEPES, 2 mM glutamine and 50 μM β-mercaptoethanol on Poly-D-Lysine coated tissue culture flasks. IRE1α (murine) was cloned into a pcDNA5/FRT/TO. INS-1 FRT/TO cells were grown following the protocol above. INS-1 FRT/TO cells were transfected with 2 μg IRE1α-pcDNA5/FRT/TO and 2 μg pOG44 using Lipofectamine 2000 (Thermo Fisher). Cell media was exchanged the next day and cells were allowed grow for another day before passaging. Selection was performed using 50 μg/mL Hygromycin-B (Thermo Fisher) over about two weeks until all un-transfected cells have died and colonies have appeared in transfected cells. Stably integrated cells were maintained in RPMI, 10% FBS buffer (v/v), 1 mM sodium pyruvate, 10 mM HEPES, 2 mM glutamine and 50 μM β-mercaptoethanol, […] Hygromycin-B. HEK293 cells were grown in DMEM High Glucose media (Gibco) supplemented with 10% FBS. […]
INS-1 or isogenic IRE1α-overexpressing INS-1 cells were plated onto Poly-D-Lysine coated tissue culture plate and grown for 48 hrs. […] PCR fragments were then digested by PstI, resolved on 3% agarose gels, stained with EtBr and quantified by densitometry using ImageJ (NIH). For standard mRNA detection, generally […] total RNA was reverse transcribed using the QuantiTect Reverse Transcription Kit (QIAGEN). […]

IRE1α [3] = target: T1, IRE1α; assay: In vitro kinase activity assay (IC50 IRE1α kinase inhibition); type: biochemical
Description: A construct containing the cytosolic kinase and RNase domains of human IRE1α (residues 547-977, IRE1α*) was expressed in SF9 insect cells by using the Bac-to-Bac baculovirus expression system (Invitrogen) with a His6 tag at the N-terminus and purified with a nickel-nitriloacetic acid (Qiagen) column. To generate dP-IRE1α*, we removed basal phosphorylation sites by incubating IRE1α* with λ-PPase (New England Biolabs) at a molar ratio of 5:1 (IRE1α*: X-PPase) in 50 mM HEPES pH 7.5, 100 mM NaCl, 1 mM MnCl2, 2 mM dithiothreitol (DTT) and 0.01% Brij 35 detergent (v/v) overnight at 4° C. Dephosphorylation was verified through western blotting using a universal phospho-protein detection agent (biotin-pIMAGO (Tymora Analytical Operations, Cat. No.: FL800) and imaged using a streptavidin-linked fluorophore.
In Vitro Kinase Activity Assay
Inhibitors (initial concentration of 10 or 60 μM, three-fold serial dilutions) were incubated with IRE1α* in cleavage buffer (20 mM HEPES, 0.05% Triton X-100 (v/v), 50 mM KCl, 1 mM MgCl2, 1 mM DTT, pH 7.5) for 30 min, followed by incubation with 10 μCi [γ^32P] ATP(3,000 Ci mmol^−1, PerkinElmer) at 23° C. for 3 hours. Samples were then spotted onto glass fiber paper (Easytab-C Glass Fiber Filter Paper, Perkin Elmer) and washed in twice with 0.5% phosphoric acid and autoradiographed using a GE Typhoon FLA 9000 Imager. Blots were quantitated using ImageQuant software. The percent inhibition was quantified by setting the background (no kinase well) as 0 and standardizing to IRE1α* without compound treatment (IRE1α*+DMSO). Dose-response curves were fit using “one-site fit logIC50” parameter using GraphPad Prism analysis software.
Compound Characterization (IC50 IRE1α Kinase Inhibition)

fold lowering of Kdimer of dpIRE1α* when kinase domain complexed to ligand (dpIRE1α*): over 80 fold
SMILES: O=C(Nc1c[nH]nc1-c1nc2ccc(CN3CCOCC3)cc2[nH]1)NC1CC1 [AT9283]

fold lowering of Kdimer of dpIRE1α* when kinase domain complexed to ligand (dpIRE1α*): over 80 fold
SMILES: NC(=O)Nc1cc(-c2cccc(F)c2)sc1C(=O)N[C@H]1CCCNC1 [AZD7762]
formation of the RNase active dimer of dpIRE1α* (dpIRE1α*; dpIRE1α*-ligand complex): promotes the formation of the RNase active dimer
formation of RNase active dimers of IRE1α* (IRE1α [1]): promotes the formation of the RNase active dimer

SMILES: Cc1ccc2c(NS(=O)(=O)c3ccccc3Cl)cccc2c1Oc1ncccc1-c1ccnc(N[C@H]2CCCNC2)n1 [KIRA8]
formation of RNase active dimers of IRE1α* (IRE1α [1]): unable to form RNase active dimers at any concentration tested
XBP1 splicing [2]: completely suppresses XBP1 splicing

IC50 (IRE1α [3]): 5.1 nM
SMILES: CCc1cc(-c2ccc(NS(=O)(=O)c3ccccc3Cl)nc2OC)cc2cnc(N[C@H]3CC[C@H](N)CC3)nc12 [LBC-0000405]

IC50 (IRE1α [3]): 7.4 nM
SMILES: CCc1cc(-c2ccc(NS(=O)(=O)CCC(F)(F)F)nc2OC)cc2cnc(N[C@H]3CC[C@H](N)CC3)nc12 [LBC-0000406, N-(5-(2-(((1r,4r)-4-aminocyclohexyl)amino)-8-ethylquinazolin-6-yl)-6-methoxypyridin-2-yl)-3,3,3-trifluoropropane-1-sulfonamide]

IC50 (IRE1α [3]): 7.5 nM
SMILES: CCc1cc(-c2ccc(NS(=O)(=O)CC(F)(F)F)nc2OC)cc2cnc(N[C@H]3CC[C@H](N)CC3)nc12 [LBC-0000407, N-(5-(2-(((1r,4r)-4-aminocyclohexyl)amino)-8-ethylquinazolin-6-yl)-6-methoxypyridin-2-yl)-2,2,2-trifluoroethane-1-sulfonamide]

IC50 (IRE1α [3]): 5.1 nM
SMILES: CCc1cc(-c2ccc(NS(=O)(=O)C3CC3)nc2OC)cc2cnc(N[C@H]3CC[C@H](N)CC3)nc12 [LBC-0000408, N-(5-(2-(((1r,4r)-4-aminocyclohexyl)amino)-8-ethylquinazolin-6-yl)-6-methoxypyridin-2-yl) cyclopropane sulfonamide]
